Assay results from ChEMBL document CHEMBL1201862, “PubChem BioAssay data set” (2004).
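Growth conditions: 96-well plates. Treatment: test compound, 48 hours, 5 concentrations. Analysis: linear interpolation between bracketing concentrations; unreached endpoints set to highest concentration. Here, GI50 denotes the concentration required for 50% inhibition of growth.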 The source made the active and inactive calls. Rule as the data show it: active = GI50 up to about 1.1 µM and inactive = higher.

Assays:
Test in all cases: NCI tumour cell line growth inhibition, 48 h
SW-620 = system: SW-620
UO-31 = system: UO-31
ACHN = system: ACHN
A498 = system: A498
T47D = system: T47D
RPMI-8226 = system: RPMI-8226
RXF 393 = system: RXF 393
786-0 = system: 786-0
HOP-92 = system: HOP-92
TK-10 = system: TK-10
MDA-N = system: MDA-N
K562 = system: K562
SF-539 = system: SF-539
LOX IMVI = system: LOX IMVI
HCT-15 = system: HCT-15
SNB-75 = system: SNB-75
OVCAR-4 = system: OVCAR-4
SK-MEL-5 = system: SK-MEL-5
U-251 = system: U-251
SF-295 = system: SF-295
NCI-H226 = system: NCI-H226
A549 = system: A549
SK-MEL-2 = system: SK-MEL-2
BT-549 = system: BT-549
CCRF-CEM = system: CCRF-CEM
IGROV-1 = system: IGROV-1
UACC-257 = system: UACC-257
HCT-116 = system: HCT-116
HOP-62 = system: HOP-62
OVCAR-5 = system: OVCAR-5
HL-60 = system: HL-60
NCI/ADR-RES = system: NCI/ADR-RES
KM12 = system: KM12
NCI-H460 = system: NCI-H460
DU-145 = system: DU-145
Malme-3M = system: Malme-3M
MDA-MB-231 = system: MDA-MB-231
SF-268 = system: SF-268
Hs-578T = system: Hs-578T
CAKI-1 = system: CAKI-1
EKVX = system: EKVX
HCC 2998 = system: HCC 2998
NCI-H23 = system: NCI-H23
MOLT-4 = system: MOLT-4
SNB-19 = system: SNB-19
HT-29 = system: HT-29
OVCAR-3 = system: OVCAR-3
OVCAR-8 = system: OVCAR-8
SR = system: SR
SK-MEL-28 = system: SK-MEL-28
COLO 205 = system: COLO 205
MDA-MB-435 = system: MDA-MB-435
SK-OV-3 = system: SK-OV-3
UACC-62 = system: UACC-62
PC-3 = system: PC-3
MCF7 = system: MCF7
SN12C = system: SN12C
M14 = system: M14
NCI-H522 = system: NCI-H522
DMS-114 = system: DMS-114
M19-MEL = system: M19-MEL
DMS-273 = system: DMS-273
LXFL 529 = system: LXFL 529
DLD-1 = system: DLD-1
HOP-18 = system: HOP-18
KM-20L2 = system: KM-20L2
SNB-78 = system: SNB-78

With CCOC(=O)n1ccc2c(C(=O)OC)c(C(=O)OC)cc(/C(=C/C(=O)OC)C(=O)OC)c21 the GI50 (SW-620) was > 100 µM (inactive), the GI50 (UO-31) was 92.5 µM (inactive) and the GI50 (ACHN) was > 100 µM (inactive). The GI50 (A498) was > 100 µM (inactive), the GI50 (T47D) was 74.5 µM (inactive) and the GI50 (RPMI-8226) was 26.5 µM (inactive). For the same compound, the GI50 (RXF 393) was 66.8 µM (inactive), the GI50 (786-0) was > 100 µM (inactive) and the GI50 (HOP-92) was 34.3 µM (inactive). The GI50 (TK-10) was > 100 µM (inactive), the GI50 (MDA-N) was 83.6 µM (inactive) and the GI50 (K562) was 26.5 µM (inactive). For the same compound, the GI50 (SF-539) was > 100 µM (inactive), the GI50 (LOX IMVI) was > 100 µM (inactive) and the GI50 (HCT-15) was greater than 10 µM. The GI50 (SNB-75) was > 100 µM (inactive), the GI50 (OVCAR-4) was > 100 µM (inactive) and the GI50 (SK-MEL-5) was > 100 µM (inactive). For the same compound, the GI50 (U-251) was > 100 µM (inactive), the GI50 (SF-295) was > 100 µM (inactive) and the GI50 (NCI-H226) was > 100 µM (inactive). The GI50 (A549) was > 100 µM (inactive), the GI50 (SK-MEL-2) was > 100 µM (inactive) and the GI50 (BT-549) was 60.7 µM (inactive). The GI50 (CCRF-CEM) was 10.4 µM (inactive), the GI50 (IGROV-1) was > 100 µM (inactive) and the GI50 (UACC-257) was > 100 µM (inactive). For the same compound, the GI50 (HCT-116) was 89.3 µM (inactive), the GI50 (HOP-62) was > 100 µM (inactive) and the GI50 (OVCAR-5) was > 100 µM (inactive). The GI50 (HL-60) was > 100 µM (inactive), the GI50 (NCI/ADR-RES) was > 100 µM (inactive) and the GI50 (KM12) was > 100 µM (inactive). For the same compound, the GI50 (NCI-H460) was > 100 µM (inactive), the GI50 (DU-145) was > 100 µM (inactive) and the GI50 (Malme-3M) was > 100 µM (inactive). For the same compound, the GI50 (MDA-MB-231) was > 100 µM (inactive), the GI50 (SF-268) was > 100 µM (inactive) and the GI50 (Hs-578T) was > 100 µM (inactive). For the same compound, the GI50 (CAKI-1) was > 100 µM (inactive), the GI50 (EKVX) was > 100 µM (inactive) and the GI50 (HCC 2998) was > 100 µM (inactive). The GI50 (NCI-H23) was > 100 µM (inactive), the GI50 (MOLT-4) was 32.1 µM (inactive) and the GI50 (SNB-19) was > 100 µM (inactive). For the same compound, the GI50 (HT-29) was > 100 µM (inactive), the GI50 (OVCAR-3) was > 100 µM (inactive) and the GI50 (OVCAR-8) was > 100 µM (inactive). The GI50 (SR) was 79.8 µM (inactive), the GI50 (SK-MEL-28) was > 100 µM (inactive) and the GI50 (COLO 205) was > 100 µM (inactive). The GI50 (MDA-MB-435) was > 100 µM (inactive), the GI50 (SK-OV-3) was > 100 µM (inactive) and the GI50 (UACC-62) was 82.2 µM (inactive). For the same compound, the GI50 (PC-3) was > 100 µM (inactive), the GI50 (MCF7) was > 100 µM (inactive) and the GI50 (SN12C) was > 100 µM (inactive). The GI50 (M14) was > 100 µM (inactive) and the GI50 (NCI-H522) was 57.1 µM (inactive).
In the case of Clc1ccc(CCn2cncn2)cc1, the GI50 (DMS-114) was > 100 µM (inactive), the GI50 (SW-620) was > 100 µM (inactive) and the GI50 (UO-31) was > 100 µM (inactive). For the same compound, the GI50 (ACHN) was > 100 µM (inactive), the GI50 (A498) was > 100 µM (inactive) and the GI50 (M19-MEL) was > 100 µM (inactive). For the same compound, the GI50 (RPMI-8226) was > 100 µM (inactive), the GI50 (RXF 393) was > 100 µM (inactive) and the GI50 (786-0) was > 100 µM (inactive). For the same compound, the GI50 (HOP-92) was > 100 µM (inactive), the GI50 (TK-10) was > 100 µM (inactive) and the GI50 (DMS-273) was > 100 µM (inactive). For the same compound, the GI50 (K562) was > 100 µM (inactive), the GI50 (SF-539) was > 100 µM (inactive) and the GI50 (LOX IMVI) was > 100 µM (inactive). For the same compound, the GI50 (LXFL 529) was > 100 µM (inactive), the GI50 (HCT-15) was greater than 100 µM and the GI50 (SNB-75) was 86.3 µM (inactive). The GI50 (OVCAR-4) was > 100 µM (inactive), the GI50 (SK-MEL-5) was > 100 µM (inactive) and the GI50 (DLD-1) was > 100 µM (inactive). For the same compound, the GI50 (U-251) was > 100 µM (inactive), the GI50 (SF-295) was > 100 µM (inactive) and the GI50 (NCI-H226) was > 100 µM (inactive). The GI50 (A549) was > 100 µM (inactive), the GI50 (SK-MEL-2) was > 100 µM (inactive) and the GI50 (HOP-18) was > 100 µM (inactive). The GI50 (CCRF-CEM) was > 100 µM (inactive), the GI50 (IGROV-1) was > 100 µM (inactive) and the GI50 (UACC-257) was > 100 µM (inactive). The GI50 (HCT-116) was > 100 µM (inactive), the GI50 (HOP-62) was > 100 µM (inactive) and the GI50 (OVCAR-5) was > 100 µM (inactive). The GI50 (KM-20L2) was > 100 µM (inactive), the GI50 (HL-60) was > 100 µM (inactive) and the GI50 (SNB-78) was > 100 µM (inactive). The GI50 (KM12) was > 100 µM (inactive), the GI50 (NCI-H460) was > 100 µM (inactive) and the GI50 (Malme-3M) was > 100 µM (inactive). The GI50 (SF-268) was > 100 µM (inactive), the GI50 (CAKI-1) was > 100 µM (inactive) and the GI50 (NCI-H23) was > 100 µM (inactive). The GI50 (MOLT-4) was > 100 µM (inactive), the GI50 (HT-29) was > 100 µM (inactive) and the GI50 (OVCAR-3) was > 100 µM (inactive). The GI50 (OVCAR-8) was > 100 µM (inactive), the GI50 (SR) was > 100 µM (inactive) and the GI50 (SK-MEL-28) was > 100 µM (inactive). The GI50 (COLO 205) was > 100 µM (inactive), the GI50 (SK-OV-3) was > 100 µM (inactive) and the GI50 (UACC-62) was > 100 µM (inactive). For the same compound, the GI50 (SN12C) was > 100 µM (inactive), the GI50 (M14) was > 100 µM (inactive) and the GI50 (NCI-H522) was > 100 µM (inactive).
